ChEMBL document CHEMBL1926608, “Design, synthesis and in vitro antitumour activity of new heteroaryl ethylenes” (2012)

Experiments:
Format in all cases: functional
A549 [1] = experiment: Growth inhibition of human A549 cells after 72 hrs by MTT assay; conditions: A549, 72 h
A549 [2] = experiment: Cytotoxicity against human A549 cells after 72 hrs by MTT assay; conditions: A549, 72 h, read-out: pLC50 (the source's name) (converted)
NCI-H226 [3] = experiment: Growth inhibition of human NCI-H226 cells after 72 hrs by MTT assay; conditions: NCI-H226, 72 h
NCI-H226 [4] = experiment: Cytotoxicity against human NCI-H226 cells after 72 hrs by MTT assay; conditions: NCI-H226, 72 h

Row | Compound | GI50 (A549 [1]) [µM] | CC50 (A549 [2]) [µM] | GI50 (NCI-H226 [3]) [µM] | LC50 (NCI-H226 [4]) [µM]
1 | CN(C)c1ccc(/C=C/c2ccc3ccccc3[n+]2C)cc1 | 1.55 | 70.8 | 0.631 | 
2 | CN(C)c1ccc(/C=C/c2cc[n+](C)cc2)cc1 | 1.58 |  | 10 | 
3 | C[n+]1c(/C=C/c2ccc(-c3ccccc3)s2)ccc2ccccc21 | 2 |  | 1.45 | 38
4 | CCCCN(CCCC)c1ccc(-c2ccc(/C=C/c3ccc4ccccc4[n+]3C)s2)s1 | 0.01 |  | 0.0457 | 10
5 | C[n+]1c(/C=C/c2ccc(N(c3ccccc3)c3ccccc3)cc2)cccc1/C=C/c1ccc(N(c2ccccc2)c2ccccc2)cc1 | 3.16 | 39.8 | 2 | 33.1
6 | CCCCN(CCCC)c1ccc(-c2ccc(/C=C/c3cccc(/C=C/c4ccc(-c5ccc(N(CCCC)CCCC)s5)s4)[n+]3C)s2)s1 | 4.79 |  | 1 | 
7 | CN(C)c1ccc(/C=C(\C#N)c2cccc[n+]2C)cc1 | 3.8 |  | 19.5 | 
8 | Cn1cccc1/C=C/c1cccc[n+]1C | 22.9 |  | 100 | 
9 | Cn1cccc1/C=C/c1cc[n+](C)cc1 | 1.66 |  | 100 | 
10 | CN(C)c1ccc(/C=C/c2cccc(/C=C/c3ccc(N(C)C)cc3)[n+]2C)cc1 | 0.372 | 13.2 | 0.0447 | 13.8
